Assays:
late watergrass = assay: Test Example 1: herbicidal activity, application before weed generation under submerged conditions (Table 16, symbol A); format: in vivo, late watergrass (Echinochloa oryzicola); details: amount of applied herbicide 320 g/ha
In short: (§1)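 Emulsion formulation, water-diluted to set dose, was put onto the flooded surface (4 cm depth, alluvial soil) the same day weeds were sown and 2.5-leaf rice transplanted. After 3 weeks at 25-30 °C under glass, each species was rated 0 (≤5% kill) to 5 (≥90% kill).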

Japanese bulrush = assay: Test Example 1: herbicidal activity, application before weed generation under submerged conditions (Table 16, symbol B); format: in vivo, Japanese bulrush (Schoenoplectus juncoides); details: amount of applied herbicide 320 g/ha
In short: as §1

oval-leafed pondweed = assay: Test Example 1: herbicidal activity, application before weed generation under submerged conditions (Table 16, symbol C); format: in vivo, oval-leafed pondweed (Monochoria vaginalis); details: amount of applied herbicide 320 g/ha
In short: as §1

barnyard grass [1] = assay: Test Example 3: herbicidal effect by foliage application, Wagner pot (Table 18, symbol H); format: in vivo, barnyard grass (Echinochloa crus-galli); details: 320 g/ha
In short: (§2)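 Plants were sown in alluvial soil held under 0.1–0.5 cm standing water and grown 14 days in a greenhouse at 25–30 °C. An emulsifiable formulation, water-diluted to the set dose, was then sprayed onto the foliage, and effects were scored three weeks later using previously defined criteria.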

Chinese sprangletop = assay: Test Example 3: herbicidal effect by foliage application, Wagner pot (Table 18, symbol D); format: in vivo, chinese sprangletop (Leptochloa chinensis); details: 320 g/ha
In short: as §2

rice flat sedge = assay: Test Example 3: herbicidal effect by foliage application, Wagner pot (Table 18, symbol E); format: in vivo, rice flat sedge (Cyperus iria); details: 320 g/ha
In short: as §2

southern crabgrass = assay: Test Example 5: herbicidal effect by foliage application, plastic box (Table 20, symbol F); format: in vivo, southern crabgrass (Digitaria ciliaris); details: foliage application after 14-day growth, evaluated three weeks after application; for Herbicidal effect by foliage application, F: southern crabgrass: amount of applied herbicide 320 g/ha
In short: (§3)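 Plants sown in sterilized diluvial soil and grown 14 days in a greenhouse at 25° C to 30° C, then sprayed on the foliage with the compound's emulsion diluted in water to a predetermined herbicide amount. Injury to weeds and crops scored three weeks after application on a visual rating scale.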

green foxtail = assay: Test Example 5: herbicidal effect by foliage application, plastic box (Table 20, symbol G); format: in vivo, green foxtail (Setaria viridis); details: foliage application after 14-day growth, evaluated three weeks after application; for Herbicidal effect by foliage application, G: green foxtail: amount of applied herbicide 320 g/ha
In short: as §3

barnyard grass [2] = assay: Test Example 5: herbicidal effect by foliage application, plastic box (Table 20, symbol H); format: in vivo, barnyard grass (Echinochloa crus-galli); details: foliage application after 14-day growth, evaluated three weeks after application; for Herbicidal effect by foliage application, H: barnyard grass: amount of applied herbicide 320 g/ha
In short: as §3

wild oat = assay: Test Example 5: herbicidal effect by foliage application, plastic box (Table 20, symbol I); format: in vivo, wild oat (Avena fatua); details: foliage application after 14-day growth, evaluated three weeks after application; for Herbicidal effect by foliage application, I: wild oat: amount of applied herbicide 320 g/ha
In short: as §3

blackgrass = assay: Test Example 5: herbicidal effect by foliage application, plastic box (Table 20, symbol J); format: in vivo, blackgrass (Alopecurus myosuroides); details: foliage application after 14-day growth, evaluated three weeks after application; for Herbicidal effect by foliage application, J: blackgrass: amount of applied herbicide 320 g/ha
In short: as §3

Italian ryegrass = assay: Test Example 5: herbicidal effect by foliage application, plastic box (Table 20, symbol K); format: in vivo, Italian ryegrass (Lolium multiflorum); details: foliage application after 14-day growth, evaluated three weeks after application; for Herbicidal effect by foliage application, K: Italian ryegrass: amount of applied herbicide 320 g/ha
In short: as §3

windgrass = assay: Test Example 5: herbicidal effect by foliage application, plastic box (Table 20, symbol L); format: in vivo, windgrass (Apera spica-venti); details: foliage application after 14-day growth, evaluated three weeks after application; for Herbicidal effect by foliage application, L: windgrass: amount of applied herbicide 320 g/ha
In short: as §3

velvetleaf = assay: Test Example 5: herbicidal effect by foliage application, plastic box (Table 20, symbol M); format: in vivo, velvetleaf (Abutilon theophrasti); details: foliage application after 14-day growth, evaluated three weeks after application; for Herbicidal effect by foliage application, M: velvetleaf: amount of applied herbicide 320 g/ha
In short: as §3

redroot pigweed = assay: Test Example 5: herbicidal effect by foliage application, plastic box (Table 20, symbol N); format: in vivo, redroot pigweed (Amaranthus retroflexus); details: foliage application after 14-day growth, evaluated three weeks after application; for Herbicidal effect by foliage application, N: redroot pigweed: amount of applied herbicide 320 g/ha
In short: as §3

lambsquarters = assay: Test Example 5: herbicidal effect by foliage application, plastic box (Table 20, symbol O); format: in vivo, lambsquarters (Chenopodium album); details: foliage application after 14-day growth, evaluated three weeks after application; for Herbicidal effect by foliage application, O: lambsquarters: amount of applied herbicide 320 g/ha
In short: as §3

chickweed = assay: Test Example 5: herbicidal effect by foliage application, plastic box (Table 20, symbol P); format: in vivo, common chickweed (Stellaria media); details: foliage application after 14-day growth, evaluated three weeks after application; for Herbicidal effect by foliage application, P: chickweed: amount of applied herbicide 320 g/ha
In short: as §3

persian speedwell = assay: Test Example 5: herbicidal effect by foliage application, plastic box (Table 20, symbol R); format: in vivo, Persian speedwell (Veronica persica); details: foliage application after 14-day growth, evaluated three weeks after application; for Herbicidal effect by foliage application, R: persian speedwell: amount of applied herbicide 320 g/ha
In short: as §3

SMILES | Herbicidal effect, A: late watergrass (late watergrass) | Herbicidal effect, B: Japanese bulrush (Japanese bulrush) | Herbicidal effect, C: oval-leafed pondweed (oval-leafed pondweed) | herbicidal effect on barnyard grass (H) (barnyard grass [1]) | herbicidal effect on Chinese sprangletop (D) (Chinese sprangletop) | herbicidal effect on rice flat sedge (E) (rice flat sedge) | Herbicidal effect by foliage application, F: southern crabgrass (southern crabgrass) | Herbicidal effect by foliage application, G: green foxtail (green foxtail) | Herbicidal effect by foliage application, H: barnyard grass (barnyard grass [2]) | Herbicidal effect by foliage application, I: wild oat (wild oat) | Herbicidal effect by foliage application, J: blackgrass (blackgrass) | Herbicidal effect by foliage application, K: Italian ryegrass (Italian ryegrass) | Herbicidal effect by foliage application, L: windgrass (windgrass) | Herbicidal effect by foliage application, M: velvetleaf (velvetleaf) | Herbicidal effect by foliage application, N: redroot pigweed (redroot pigweed) | Herbicidal effect by foliage application, O: lambsquarters (lambsquarters) | Herbicidal effect by foliage application, P: chickweed (chickweed) | Herbicidal effect by foliage application, R: persian speedwell (persian speedwell) | other results
CCCC(=O)Oc1c(C)nn(C)c(=O)c1-c1c(-c2cccc(OC)c2)sc2c(Cl)cccc12 [4-065] | 4 (Herbicidal rate of 70% or more and less than 90%) | 0 (Herbicidal rate of 5% or less (almost no effect)) | 1 (Herbicidal rate of 5% or more and less than 20%) | 4 (Herbicidal rate of 70% or more and less than 90%) | 3 (Herbicidal rate of 40% or more and less than 70%) | 3 (Herbicidal rate of 40% or more and less than 70%) |  |  |  |  |  |  |  |  |  |  |  |  | herbicidal effect on F: southern crabgrass (evaluation grade 0-5) (southern crabgrass; 320 g/ha): 0 (Herbicidal rate of 5% or less (almost no effect)); herbicidal effect on G: green foxtail (evaluation grade 0-5) (green foxtail; 320 g/ha): 0 (Herbicidal rate of 5% or less (almost no effect)); herbicidal effect on H: barnyard grass (evaluation grade 0-5) (barnyard grass [2]; 320 g/ha): 0 (Herbicidal rate of 5% or less (almost no effect)); herbicidal effect on I: wild oat (evaluation grade 0-5) (wild oat; 320 g/ha): 0 (Herbicidal rate of 5% or less (almost no effect)); herbicidal effect on J: blackgrass (evaluation grade 0-5) (blackgrass; 320 g/ha): 0 (Herbicidal rate of 5% or less (almost no effect)); herbicidal effect on K: Italian ryegrass (evaluation grade 0-5) (Italian ryegrass; 320 g/ha): 0 (Herbicidal rate of 5% or less (almost no effect)); herbicidal effect on L: windgrass (evaluation grade 0-5) (windgrass; 320 g/ha): 0 (Herbicidal rate of 5% or less (almost no effect)); herbicidal effect on M: velvetleaf (evaluation grade 0-5) (velvetleaf; 320 g/ha): 1 (Herbicidal rate of 5% or more and less than 20%); herbicidal effect on N: redroot pigweed (evaluation grade 0-5) (redroot pigweed; 320 g/ha): 5 (Herbicidal rate of 90% or more (almost completely withered)); herbicidal effect on O: lambsquarters (evaluation grade 0-5) (lambsquarters; 320 g/ha): 2 (Herbicidal rate of 20% or more and less than 40%); herbicidal effect on P: chickweed (evaluation grade 0-5) (chickweed; 320 g/ha): 3 (Herbicidal rate of 40% or more and less than 70%); herbicidal effect on R: persian speedwell (evaluation grade 0-5) (persian speedwell; 320 g/ha): 3 (Herbicidal rate of 40% or more and less than 70%)
Cc1nn(C)c(=O)c(-c2c(-c3ccccc3C(F)(F)F)sc3c(Cl)cccc23)c1O [4-070] | 3 (Herbicidal rate of 40% or more and less than 70%) | 2 (Herbicidal rate of 20% or more and less than 40%) | 1 (Herbicidal rate of 5% or more and less than 20%) | 5 (Herbicidal rate of 90% or more (almost completely withered)) | 4 (Herbicidal rate of 70% or more and less than 90%) | 4 (Herbicidal rate of 70% or more and less than 90%) | 0 (Herbicidal rate of 5% or less (almost no effect)) | 0 (Herbicidal rate of 5% or less (almost no effect)) | 0 (Herbicidal rate of 5% or less (almost no effect)) | 0 (Herbicidal rate of 5% or less (almost no effect)) | 0 (Herbicidal rate of 5% or less (almost no effect)) | 3 (Herbicidal rate of 40% or more and less than 70%) | 0 (Herbicidal rate of 5% or less (almost no effect)) | 0 (Herbicidal rate of 5% or less (almost no effect)) | 3 (Herbicidal rate of 40% or more and less than 70%) | 3 (Herbicidal rate of 40% or more and less than 70%) | 5 (Herbicidal rate of 90% or more (almost completely withered)) | 5 (Herbicidal rate of 90% or more (almost completely withered)) | 
COc1ccccc1-c1sc2cc(Cl)c(Cl)cc2c1-c1c(O)c(C)nn(C)c1=O [5-041] | 0 (Herbicidal rate of 5% or less (almost no effect)) | 5 (Herbicidal rate of 90% or more (almost completely withered)) | 5 (Herbicidal rate of 90% or more (almost completely withered)) | 4 (Herbicidal rate of 70% or more and less than 90%) | 3 (Herbicidal rate of 40% or more and less than 70%) | 3 (Herbicidal rate of 40% or more and less than 70%) | 3 (Herbicidal rate of 40% or more and less than 70%) | 4 (Herbicidal rate of 70% or more and less than 90%) | 3 (Herbicidal rate of 40% or more and less than 70%) | 0 (Herbicidal rate of 5% or less (almost no effect)) | 0 (Herbicidal rate of 5% or less (almost no effect)) | 0 (Herbicidal rate of 5% or less (almost no effect)) | 0 (Herbicidal rate of 5% or less (almost no effect)) | 4 (Herbicidal rate of 70% or more and less than 90%) | 5 (Herbicidal rate of 90% or more (almost completely withered)) | 3 (Herbicidal rate of 40% or more and less than 70%) | 5 (Herbicidal rate of 90% or more (almost completely withered)) | 3 (Herbicidal rate of 40% or more and less than 70%) | 
CCOc1ccccc1-c1sc2cc(Cl)c(Cl)cc2c1-c1c(O)c(C)nn(C)c1=O [5-045] | 0 (Herbicidal rate of 5% or less (almost no effect)) | 3 (Herbicidal rate of 40% or more and less than 70%) | 0 (Herbicidal rate of 5% or less (almost no effect)) | 4 (Herbicidal rate of 70% or more and less than 90%) | 3 (Herbicidal rate of 40% or more and less than 70%) | 3 (Herbicidal rate of 40% or more and less than 70%) | 2 (Herbicidal rate of 20% or more and less than 40%) | 3 (Herbicidal rate of 40% or more and less than 70%) | 3 (Herbicidal rate of 40% or more and less than 70%) | 0 (Herbicidal rate of 5% or less (almost no effect)) | 0 (Herbicidal rate of 5% or less (almost no effect)) | 0 (Herbicidal rate of 5% or less (almost no effect)) | 0 (Herbicidal rate of 5% or less (almost no effect)) | 4 (Herbicidal rate of 70% or more and less than 90%) | 3 (Herbicidal rate of 40% or more and less than 70%) | 1 (Herbicidal rate of 5% or more and less than 20%) | 5 (Herbicidal rate of 90% or more (almost completely withered)) | 5 (Herbicidal rate of 90% or more (almost completely withered)) | 

From patent publication US20230085307A1, “PYRIDAZINONE COMPOUND AND HERBICIDE” (NISSAN CHEMICAL CORPORATION, priority 2019, published 2023)
